Molecules are shown by their SMILES.

The record followed here is patent US10517898B2, “Compositions and methods related to hematologic recovery” (The Regents of the University of California, priority 2014, dated 2019).

The assay has as its system PTPσ^−/− BM cells. As to the kind of experiment: Transendothelial migration assay (CFCs from migrated cells in lower chamber). The class given is cell-based. To be noted: 25 μM EHT1864, 16 hours culture, mouse spleen endothelial cell transwell, CFCs of migrated cells (FIG. 3D). The protocol: Transendothelial migration assays were performed as follows. VeraVec™ mouse spleen endothelial cells (Angiocrine Bioscience, New York N.Y.) were cultured to confluence in […] pore transwells (Corning Incorporated, Corning N.Y.). Transwells were seeded with 200,000 BM cells in IMDM with 10% FBS, 1% penicillin-streptomycin, 125 ng/mL stem cell factor, 50 ng/mL Flt-3 ligand and 20 ng/mL thrombopoietin with or without 25 μM Rac inhibitor, EHT1864 (R&D Systems, Minneapolis, Minn.). 100 ng/mL SDF-1α (R&D) or media was added to the bottom chamber of the transwell. 16 hours post culture, cells in the bottom chamber were collected and CFCs were set up with the migrated cells.

With `O=c1cc(CN2CCOCC2)occ1OCCCCCSc1ccnc2cc(C(F)(F)F)ccc12` [EHT1864], the “transendothelial migration capacity of PTPσ^−/− cells” value is on record as “completely abrogated”.
